Assay results taken from patent publication US20240166690A1, “MULTI-TARGET CY[…] FOR OPIOID/NEUROPEPTIDE FF RECEPTORS, AND PREPARATION THEREFOR AND APPLICATION THEREOF” (SHANGHAI TIANCI LIFE SCIENCE DEVELOPMENT CO., LTD., priority 2021, published 2024).
Bridge positions count the residues as written; N and C are the ends. Square brackets hold non-standard residues; d marks the D form. Peptide text beside a SMILES is read from it. NMeF = CN[C@@H](Cc1ccccc1)C(=O)O; dOrn = NCCC[C@@H](N)C(=O)O

Assays:
[1] = Constipation side effect assay (gastrointestinal motility, activated carbon); type: in vivo, mice; conditions: male, Kunming, mouse, in vivo; oral injection, mice; read-out: ED50 of gastrointestinal inhibition
Protocol: (§1) 26±2 g Kunming male mice were selected. First, the mice were starved and placed in a box without padding. The mice were not allowed to eat, but could drink water freely. The mice were starved for 16 hours then weighted, and administered orally (p.o.). After 15 minutes of administration, pre-prepared activated carbon suspension (a physiological saline suspension containing 5% activated carbon and 10% arabic gum) was orally infused into the stomach at a volume of 0.1 mL/10 g. After 30 minutes of gavage, the mice were sacrificed through cervical dislocation. The mice were dissected immediately and the entire length of the small intestine was taken from the pylorus of the stomach to the cecum. Then the total length of the small intestine and the length of carbon powder movement were measured.
(§2) The experimental data of gastrointestinal motility was represented by a percentage of gastrointestinal motility, and the specific calculation method was represented by a percentage of the distance the carbon powder moved divided by the total length of the small intestine. The data was represented by the mean±S.E.M. of the percentage of gastrointestinal motility, and the differences between compounds and saline were analyzed using one-way ANOVA (Dunnett test). *P<0.05, **P<0.01, and ***P<0.001indicated significance of the difference between only saline injected and related compounds injected.

[2] = tested on: Kunming male mice; test: as above; type: in vivo; conditions: oral; for side effect of constipation: effective dose range of analgesia
Protocol: as §1, §2

[3] = target: T1, Mu-opioid receptor (Homo sapiens, UniProt P35372); test: cAMP functional experiment, Mu-opioid receptor (forskolin-induced cAMP accumulation); type: cell-based
T1 construct: expressed in transfected cells; host or cells: HEK293
Protocol: (§3) The agonistic activity of the cyclopeptide molecule of the present invention against Mu-opioid receptor, Delta-opioid receptor, Kappa-opioid receptor, NPFF1 receptor and NPFF2 receptor was evaluated by detecting the regulation of the cyclopeptide molecule of the present invention on the intracellular accumulation of cyclic adenosine monophosphate (cAMP) induced by Forskolin in HEK293 cells stably expressing these five receptors. The experimental method was: the cells were seeded in 24 well plates with 120000 cells per well, and were cultured for more than 20 hours. At the beginning of the experiment, the culture medium in the culture dish was suck out, and then 500 μL of preheated serum-free medium containing 1 mM of IBMX was added, the mixture was incubated at 37° C. for 10 minutes. Then each 10 μL of the drug to be tested and 10 μM of forskolin (final concentration) were added to each well. The mixture was incubated at 37° C. for 30 minutes. After incubation, all the liquid was suck out from the culture dish, 500 μL of 0.2 N hydrochloric acid was added to each well, the mixture was incubated at room temperature for 30 minutes to promote cell lysis. After lysis was complete, NaOH was added to neutralize the hydrochloric acid solution used for lysis. Then all the liquid was suck out from the culture dish into centrifuge tubes, the liquid was centrifuged at 12000 rpm for 2 minutes. 50 μL was taken to a clean centrifuge tube, 100 μL of 60 μg/μL PKA was added, and 100 μL of TE cAMP buffer was added to the blank control group (B). Another 50 μL of 0.5 μ Ci[^3H]cAMP was added to each of the above centrifuge tubes, the mixture was quickly mixed and incubated at 4° C. for more than 2 hours. After incubation, another 100 μL of activated carbon suspension was added to each tube, the mixture was vortex agitated evenly, placed in an ice bath for 1 minute, centrifuged at 5000 rpm for 4 minutes. 200 μL of supernatant after centrifugation in each tube was suck out to a 24 well plate, with an additional 700 μL of scintillator liquid added per well, then the 24 well plate was sealed with adhesive film, placed for 3 hours, then placed on the scintillation instrument for measurement.
(§4) The inhibitory effect of cAMP was represented by the percentage (% control) of drug inhibition of intracellular cAMP accumulation induced by Forskolin, wherein % control=(cAMP content when treated with Forskolin−cAMP content when Forskolin co-treated with the test drug)/(cAMP content when treated with Forskolin−cAMP content when treated with solvent). The related % control data was represented by mean±S.E.M. The dose-effect relationship of the drug was statistically analyzed using a nonlinear regression model, and the IC50 values of the multi-target cyclopeptide molecule on inhibition of Forskolin induced intracellular cAMP accumulation were calculated using the statistical software GraphPad Prism version 5.0.

[4] = tested on: mice; test: Naloxone withdrawal experiment (number of jumps); type: in vivo; conditions: for number of jumps: escalating doses every 8 hours, naloxone 10 mg/kg i.p., 30 minutes, saline 5; for withdrawal symptoms versus saline: oral, low and high doses
Protocol: The naloxone withdrawal test is a classic experiment for evaluating drug physiological addiction. The experimental method is based on Venetia Zachariou (2003). […] High doses of compound 11 were also administered with doses of 20, 40, 60, 80, 100, 100, and 100 μg/kg, respectively. Two hours after the last administration, mice were intraperitoneally injected with 10 mg/kg of naloxone. Then the mouse was immediately placed in an opaque barrel-shaped structure with an inner diameter of 9 cm and a height of 32 cm, and the number of jumps in mice within 30 minutes was recorded. The experimental results were represented by the number of jumps in mice, which is the number of jumps±S.E.M. The difference between the compound group and saline control group was statistically analyzed using one-way ANOVA (Bonferroni test). *P<0.05, **P<0.01, and ***P<0.001 indicated significance of differences between saline and compound.

[5] = target: T2, NPFF2 receptor (Homo sapiens, UniProt Q9Y5X5); test: cAMP functional experiment, NPFF2 receptor (forskolin-induced cAMP accumulation); type: cell-based
T2 construct: expressed in transfected cells; host or cells: HEK293
Protocol: as §3, §4

T1 sequence (P35372 whole entry): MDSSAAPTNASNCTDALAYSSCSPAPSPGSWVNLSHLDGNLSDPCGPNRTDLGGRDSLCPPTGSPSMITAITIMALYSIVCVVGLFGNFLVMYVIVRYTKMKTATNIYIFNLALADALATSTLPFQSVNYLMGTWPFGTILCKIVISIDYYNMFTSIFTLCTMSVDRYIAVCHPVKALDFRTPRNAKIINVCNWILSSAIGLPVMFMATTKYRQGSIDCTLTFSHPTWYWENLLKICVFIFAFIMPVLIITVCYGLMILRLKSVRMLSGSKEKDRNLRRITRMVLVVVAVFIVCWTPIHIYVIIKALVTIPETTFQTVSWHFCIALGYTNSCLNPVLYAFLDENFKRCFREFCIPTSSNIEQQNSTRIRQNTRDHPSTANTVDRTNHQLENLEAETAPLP
T2 sequence (Q9Y5X5 whole entry): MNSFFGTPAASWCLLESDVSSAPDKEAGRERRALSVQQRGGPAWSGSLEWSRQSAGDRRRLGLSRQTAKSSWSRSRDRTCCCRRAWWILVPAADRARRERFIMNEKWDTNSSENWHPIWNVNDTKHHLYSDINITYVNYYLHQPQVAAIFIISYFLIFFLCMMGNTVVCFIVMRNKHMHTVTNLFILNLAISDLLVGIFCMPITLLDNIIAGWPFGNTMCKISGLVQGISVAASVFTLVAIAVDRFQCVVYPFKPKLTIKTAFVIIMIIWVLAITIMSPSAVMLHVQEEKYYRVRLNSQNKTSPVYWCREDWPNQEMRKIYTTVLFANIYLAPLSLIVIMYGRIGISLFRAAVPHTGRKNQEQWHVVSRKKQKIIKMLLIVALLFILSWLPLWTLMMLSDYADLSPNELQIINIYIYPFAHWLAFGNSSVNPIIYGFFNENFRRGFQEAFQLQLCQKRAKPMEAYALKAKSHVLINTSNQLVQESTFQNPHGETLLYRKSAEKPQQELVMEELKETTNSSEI

SMILES	ED50 at 45 min [1]	ED50 of gastrointestinal inhibition relative to analgesic ED50 [2]	side effect of constipation [2]	IC50 [3]	number of jumps ([4]; high-dose oral)	number of jumps ([4]; low-dose oral)	withdrawal symptoms versus saline [4]	IC50 [5]
CN1C(=O)CNC(=O)[C@H](NC(=O)[C@@H](N)Cc2ccc(O)cc2)CCCCNC(=O)C[C@@H](C(=O)N2CCC[C@H]2C(=O)N[C@@H](CCC(N)=O)C(=O)N[C@@H](CCCNC(=N)N)C(=O)N[C@@H](Cc2ccccc2)C(N)=O)NC(=O)[C@@H]1Cc1ccccc1 [Compound 1, Tyr-c[D-Lys-Gly-NMe-Phe-Asp]-Pro-Gln-Arg-Phe-NH2] (H-Y[dK]G[NMeF]DPQRF-NH2; lactam 2-5)	37.1 mg/kg	27044 times	no side effect of constipation within the effective dose range of analgesia	93.5 nM	1	1	did not show withdrawal symptoms	49.8 nM
CN1C(=O)CNC(=O)[C@H](NC(=O)[C@@H](N)Cc2ccc(O)cc2)CCCNC(=O)CC[C@@H](C(=O)N2CCC[C@H]2C(=O)N[C@@H](CCC(N)=O)C(=O)N[C@@H](CCCNC(=N)N)C(=O)N[C@@H](Cc2ccccc2)C(N)=O)NC(=O)[C@@H]1Cc1ccccc1 [Compound 11, Tyr-c^[2,5][D-Orn-Gly-NMe-Phe-Glu]-Pro-Gln-Arg-Phe-NH2] (H-Y[dOrn]G[NMeF]EPQRF-NH2; lactam 2-5)	1.24 mg/kg	8850 times	no side effect of constipation within the effective dose range of analgesia	84 nM	4	9	did not show withdrawal symptoms	572 nM
